According to patent US12728126B2, “Compounds for inhibiting LY6K and methods of using same” (The Henry M. Jackson Foundation for the Advancement of …, priority 2020, dated 2026):

Experiments:
[1] = system: 4T1 mouse mammary tumor cells; test: 4T1 syngeneic mammary tumor model, tumor growth in vivo; parameters: species or system Balb/c mice; conditions: 4T1 model
Protocol: A syngeneic mammary tumor model is used to show the effect of Ly6K small molecule inhibitors on tumor growth in vivo. 4T1 mouse model is an orthotopic allograft model (also called the spontaneous tumor metastasis model). In the 4T1 mouse model, 4T1 mouse mammary tumor cells were injected into the second mammary gland of syngenetic Balb/c mice, and the spontaneous metastasis to the lung were analyzed with a colonogenic assay. 4T1 mice bearing 50-70 mm^3 tumors were treated with NSC243928 or NSC11150 every second day at a dosage of 5 mg/kg in saline. Each group had 10 mice. Tumor measurements were performed using a Vernier caliper. The tumor volumes were calculated using equation ½*length*(width*width).

[2] = system: E0771 tumors; test: E0771 mammary tumor in syngeneic C57Bl/6 model, tumor growth and re-challenge; format: in vivo, C57BL6 mice
Protocol: Treatment of E0771 tumors in a syngeneic C57Bl/6 model with compounds described herein reduced tumor growth, while combination treatment with the two small molecules completely eliminated tumor growth. The treatment was halted after tumor disappearance. Three weeks later, the cured mice were re-challenged with E0771 tumor cells, with complete, durable protection against tumor growth.
In another study, syngeneic female C57BL6 mice were injected with mammary tumor cell line E0771 in the 4th mammary gland. After tumors were palpable, they were injected intra-peritoneal injection every 3rd day at 10 mg/kg. The tumor measurements were performed with caliper method. 5 out of 5 control mice continued to sustained tumor growth. […] The drug treatment was stopped after the resolve of the tumors. The cured mice (three out of five) were kept under observation for one month. These mice were re-challenged with E0771 tumor cell inoculation into mammary gland. A control naïve group of C57BL6 were simultaneous inoculated with same batch of E0771 tumor cells in to mammary gland. Tumor progression was monitored in both group. […] Tumor volume was measured in mm^3. Thus, Compound I treatment resolves tumor and induces anti-tumor immunity.

[3] = system: TGFβ1/Smad2/3 signaling; test: Western blot of TGFβ1 induced phosphorylation of Smad2/3; format: cell-based; conditions: serum starved, TGFβ1 (10 ng/mL), 2 μM, 30 minutes
Protocol: Cells were serum starved overnight and then treated with TGF 13 (10 ng/mL) or IFN γ (100 ng/mL) in the presence of 2 μM NSC243928 or NSC11150 for 30 minutes followed by protein analysis using western blot. […] NSC243928 inhibited the TGFβ1 induced phosphorylation of Smad2/3; NSC11150 had no effect on TGFβ1/Smad2/3 signaling. NSC11150 inhibited IFNγ induced phosphorylation of Stat1; NSC243928 had no effect on IFNγ/Stat1 signaling.

[4] = system: Myeloid-derived suppressor cells (MDSCs); test: MDSCs (Cd11b and Gr1 dual positive cells) in peripheral blood of 4T1 tumor bearing mice, flow cytometry; format: in vivo; conditions: three doses of 50 mg/kg
Protocol: Myeloid-derived suppressor cells (MDSCs) are a major cell type which suppress the anti-tumor response. Cd11b and Gr1 dual positive cells in lymphocytes from peripheral blood from 4T1 tumor bearing mice received Compound I and the control group (10 mice in each group).
Three doses of Compound I (50 mg/kg) was injected via intravenously and intraperitoneally, and intravenous and peripheral blood was collected. Freshly isolated lymphocytes were stained with Cd11b and Gr-1 and a dye which can discriminated live and dead cells. The flow cytometry analysis for dual positivity was performed by gating on the live cells.

[5] = system: caspase 7; test: Western blot of caspase 7 activation in 4T1 cells; format: cell-based, mouse; conditions: 0.1 μM, 1.0 μM or 5.0 μM, 16 hours
Protocol: Cancer cells accumulate various mutations in their genome, yet they are protected against DNA damage induced apoptosis. Poly (ADP-ribose) polymerase (PARP) is a protein which facilitates DNA repair, genomic stability, and inhibits programmed cell death. PARP proteins are inactivated by cleavage of caspase 3 and caspase 7 in vivo. PARP inactivation cleavage and caspase activation by western blot was studied.
4T1 mammary cells were plated at the same cell density. Cells were serum starved overnight. They were supplemented with medium containing 10% serum with or without doses of Compound I (0.1 μM, 1.0 μM or 5.0 μM) and for 16 hours. Equal quantity of protein was loaded for western blot analysis.

[6] = system: LY6K; test: LY6K membrane localization after short-term treatment; format: cell-based
Source text: LY6K is expressed on lamellipodia on the cell membrane. […] It is contemplated that Compound I may disable LY6K signaling by its mislocalization form membrane where LY6K may promote TGFbeta, IFN-gamma signaling paways.

[7] = target: T1, LY6K (Mus musculus, UniProt Q9CWP4); test: Western blot of total LY6K level in 4T1 cells; format: cell-based; parameters: dose or concentration left out as unconfirmed; conditions: overnight
T1 construct: endogenous in cells; host or cells: 4T1 mouse mammary tumor cells
T1 sequence (Q9CWP4 21-123): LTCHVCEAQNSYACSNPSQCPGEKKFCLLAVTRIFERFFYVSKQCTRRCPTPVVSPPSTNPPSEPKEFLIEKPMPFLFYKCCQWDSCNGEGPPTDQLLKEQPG
Protocol: 4T1 cells were treated with a concentration of 0.1 […] of Compound I overnight.

[8] = E0771, intra-peritoneal, every 3rd day, 10 mg/kg

SMILES: CCS(=O)(=O)Nc1ccc(Nc2c3ccccc3nc3ccccc23)c(OC)c1 [Compound I, N-(4-(acridin-9-ylamino)-3-methoxyphenyl)ethanesulfonamide]
- day following treatment at which inhibition on tumor growth is statistically significant ([1]; 5 mg/kg every second day, P<0.005): 3 days
- inhibitory effect on tumor growth in vivo ([1]; 5 mg/kg in saline every second day): significant inhibitory effects
- treated mice with complete resolve of mammary tumor [2, 8]: 3 out of 5
- treated mice with partial response [2, 8]: 2 out of 5
- cured mice that remained immune to tumor cells on re-challenge ([2]; re-challenged with E0771 after one month observation): Three out of three
- TGFβ1 induced phosphorylation of Smad2/3 [3]: inhibited
- lower MDSCs in peripheral blood of treated mice [4]: more than 90%
- Cd11b and Gr-1 dual positive cells in treated group ([4]; gated on live cells): significantly lower
- caspase 7 activation [5]: activated
- concentration at which loss of LY6K membrane localization was observed (as low as) [6]: 0.001 mM
- localization of LY6K on the plasma membrane ([6]; 0.001 mM, 15 min): translocation of LY6K from the plasma membrane
- total level of LY6K [7]: dose response reduction
